Data published in US11976063B2, “Pharmaceutical composition comprising berberine and ursodeoxycholic acid for the treatment of various diseases or disorders” (priority 2014, dated 2024).
Structures can show the parent of a compound that is named as a salt.

Columns and labels:
[1] = tested on: high fat diet (HFD) induced obesity mice; test: High fat diet induced obesity mice model (Example 2); type: in vivo, NIH male mice; conditions: used individually at 50 mg/Kg, once daily i.g., interim results at 15 days
Description: This example describes an in vivo efficacy study of the combinations disclosed in the present invention using a high fat diet (HFD) induced obesity mice model.
Fifty NIH male mice of 4 weeks old were acquired (Guangzhou Institute of Laboratory Animal). After acclimatization for one week, eight mice were selected as normal control; the rest forty-two mice were fed with HFD (in which 40% of calories is from fat) for 14 days to establish a HFD induced obesity mice model resembling the pathophysiology of metabolic syndrome in human. Normal control mice were fed with normal chow diet. […]
The mice from Group 1 to 4 were treated with the corresponding testing articles indicated above once daily by intragastric gavage. […] Blood glucose (fasting and non-fasting), total cholesterol (TC) and triglyceride (TG) levels, food intake, water intake and body weight were measured throughout the study.
On day 28 of the treatment, an oral glucose tolerance test (OGTT) was performed in 12-hour fasted animals. For the OGTT, after the measurement of the basal glucose concentration (T=−30 min), mice received an oral glucose challenge at 2.5 g/Kg and glucose values were determined by glucometer (ACCU-CHEK Active, Roche) at 0, 30, 60 and 120 min. […]

[2] = tested on: high fat diet (HFD) induced non-alcoholic fatty liver mice; test: High fat diet induced non-alcoholic fatty liver mice model (Example 5); type: in vivo, NIH male mice
Description: This example describes an in vivo efficacy study of BUDCA disclosed in the present invention using a high fat diet (HFD) induced non-alcoholic fatty liver mice model.
91 NIH male mice of 4 weeks old were obtained from Vital River Laboratories (Beijing, China). After acclimatization for one week, 13 mice were selected as control group (Group 1, G1) with normal chow diet fed, and the other 78 mice were fed with HFD (in which 40% of calories is from fat) for 4 weeks to establish an animal model resembling the pathophysiology of non-alcoholic fatty liver in human.
Following 4 weeks of high fat dietary intervention, the 78 mice were divided into 6 groups according to body weight (n=13 per group): • Group 2, G2: Vehicle control (0.5% CMC-Na solution) • Group 3, G3: Low-dose group of BUDCA (30 mg/kg) • Group 4, G4: Middle-dose group of BUDCA (100 mg/kg) • Group 5, G5: High-dose group of BUDCA (300 mg/kg) • Group 6, G6: BBR control group (Berberine HCl, 150 mg/Kg) • Group 7, G7: UDCA control group (Ursodeoxycholic acid, 150 mg/Kg)
The mice from G2 to G7 were administered with the corresponding testing articles indicated above once daily by intragastric gavage. HFD continued throughout the duration of the treatment of 6 weeks. The normal mice (G1) were treated with vehicle (0.5% CMC-Na solution) via intragastric gavage. At the end of experiment, the following biochemical parameters were measured and tests were carried out: • Body weight, the weight ratio of liver • Total cholesterol (TC) and triglyceride (TG) levels, high density lipoprotein cholesterol (HDL-C) and low density lipoprotein cholesterol (LDL-C) levels • Alanine aminotransferase (ALT) and aspartate aminotransferase (AST) levels • Superoxide dismutase (SOD) activity and malondialdehyde (MDA) level • Oral glucose tolerance test (OGTT) • Histopathological examination of liver ([…] staining)
After 6 weeks treatment, blood was collected via retro-orbital bleeding of each 12-hour fasted animal. Liver was harvested by surgery for histopathology analysis after weight measurement. Then the serum was isolated for the determination of TC, TG, HDL-C, LDL-C, ALT, AST, SOD and MDA.
One week before sacrifice (Week 5 of treatment), an oral glucose tolerance test (OGTT) was performed in 12-hour fasted animals. For the OGTT, all mice received an oral glucose challenge at 2.0 g/Kg and the blood glucose concentrations were determined by glucometer (ACCU-CHEK Active, Roche) at 0, 30, 60, 90 and 120 min.
The liver tissue was histopathologically evaluated by […] staining after frozen section.

[3] = tested on: high fat diet (HFD) and streptozotocin (STZ) induced diabetic mice; type: in vivo
Protocol: This example describes an in vivo efficacy study of the combinations disclosed in the present invention using a high fat diet (HFD) and streptozotocin (STZ) induced diabetic mice model.
Sixty NIH male mice of 4 weeks old were acquired from Guangzhou Institute of Laboratory Animal. After acclimatization for one week, five mice were selected as normal control group (Group 1), the rest fifty-five mice were administered single dose of STZ at the dose of 40 mg/kg, and fed with HFD (in which 40% of calories is from fat) for 7 days to establish a diabetic animal model resembling the pathophysiology of type 2 diabetes in human. Mice in the normal control group were not administered STZ, and fed with normal chow diet.
The mice from Group 2 to 5 were treated with the corresponding testing articles indicated above once daily by intragastric gavage. HFD continued throughout the duration of the treatment of 28 days. The normal mice (Group 1) were treated with normal saline by intragastric gavage. Fasting blood glucose, total cholesterol (TC) and triglyceride (TG) levels, food intake, water intake and body weight were measured throughout the study.
On day 28 of the treatment, an oral glucose tolerance test (OGTT) was performed in 12-hour fasted animals. For the OGTT, after the measurement of the basal glucose concentration (T=−30 min), mice received an oral glucose challenge at 2.5 g/kg and glucose values were determined by glucometer (ACCU-CHEK Active, Roche) at 0, 30, 60 and 120 min.
After OGTT, blood samples were collected for the measurement of blood glucose, TC and TG. The mice were sacrificed, and the pancreas, liver, kidney and fat were harvested for histopathology analysis.

[4] = 150 mg/Kg (G6 Berberine HCl; G7 UDCA), i.g. once daily, 6 weeks, HFD, mean ± S.E.M
[5] = serum, 150 mg/Kg (G6 Berberine HCl; G7 UDCA), i.g. once daily, 6 weeks, HFD, mean ± S.E.M
[6] = Day 0 (before treatment), same doses
[7] = Day 3, same doses, once daily i.g.
[8] = Day 27, same doses, once daily i.g.
[9] = Day 28, same doses, once daily i.g.

For COc1ccc2cc3[n+](cc2c1OC)CCc1cc2c(cc1-3)OCO2 [berberine, 5,6-dihydro-9,10-dimethoxybenzo[g]-1,3-benzodioxolo[5,6-a]quinolizinium], the “Pharmacological effects comparing to the vehicle control group” value [1] was “neither berberine (Group 2), nor hydroxycitric acid (Group 3) demonstrated any pharmacological effects” and the “Animals showing gastrointestinal side effects at the time of sacrifice” value ([2]; berberine treatment group (150 mg/Kg), 6 weeks i.g.) was 50 % of animals.
With O=C(O)CC(O)(C(=O)O)C(O)C(=O)O (stereo not drawn) [hydroxycitric acid, 1,2-dihydroxypropane-1,2,3-tricarboxylic acid] the “Pharmacological effects comparing to the vehicle control group” value [1] was “neither berberine (Group 2), nor hydroxycitric acid (Group 3) demonstrated any pharmacological effects”.
C[C@H](CCC(=O)O)[C@H]1CC[C@H]2[C@@H]3[C@@H](O)C[C@@H]4C[C@H](O)CC[C@]4(C)[C@H]3CC[C@]12C [UDCA, 3α,7β-dihydroxy-5β-cholan-24-oic acid, reference compound] was tested, and the Body weight [2, 4] was 42.0 ± 1.16 g, the “Weight ratio of liver” value [2, 4] was 4.77 ± 0.26% and the ALT [2, 5] was 30.6 ± 5.73 U/L. The AST [2, 5] was 162.86 ± 29.42 U/L, the HDL-C [2, 5] was 2.13 ± 0.33 mmol/L and the LDL-C [2, 5] was 1.37 ± 0.26 mmol/L. For the same compound, the SOD [2, 5] was 44.75 ± 11.99 U/mL, the TC [2, 5] was 4.77 ± 0.70 mmol/L and the TG [2, 5] was 1.20 ± 0.22 mmol/L.
CN(C)C(=N)NC(=N)N [Metformin, N,N-Dimethylimidodicarbonimidic diamide] was tested, and the “Effect on symptoms of diabetes (overall efficacy)” value ([3]; 28 days treatment, HFD/STZ mice) was “did not demonstrate a clear efficacy”, the “Fasting blood glucose, Day 0” value ([3]; Day 0 (before treatment), metformin 300 mg/kg, berberine 150 + UA 150 mg/kg, berberine 150 + EPA 75 + DHA 75 mg/kg) was 24.08 ± 5.44 mmol/L and the “Weight, Day 0” value ([3]; Day 0 (before treatment), metformin 300 mg/kg, berberine 150 + UA 150 mg/kg, berberine 150 + EPA 75 + DHA 75 mg/kg, once daily i.g.) was 26.30 ± 2.54 g. For the same compound, the “Total Cholesterol, Day 0” value [3, 6] was 297.96 ± 67.09 mg/dL, the “Triglyceride, Day 0” value [3, 6] was 2.40 ± 1.03 mmol/L and the “Food Intake, Day 3” value [3, 7] was 8.66 g. The “Water intake, Day 3” value [3, 7] was 19.40 mL, the “Water intake, Day 6” value ([3]; Day 6, same doses, once daily i.g.) was 23.60 mL and the “Weight, Day 27” value ([3]; Day 27, metformin 300 mg/kg, berberine 150 + UA 150 mg/kg, berberine 150 + EPA 75 + DHA 75 mg/kg, once daily i.g.) was 36.99 ± 3.90 g. The “Food Intake, Day 27” value [3, 8] was 9.37 g, the “Water intake, Day 27” value [3, 8] was 34.40 mL and the “Fasting blood glucose, Day 28” value [3, 9] was 21.66 ± 4.71 mmol/L. For the same compound, the “Total Cholesterol, Day 28” value [3, 9] was 436.99 ± 159.73 mg/dL and the “Triglyceride, Day 28” value [3, 9] was 6.06 ± 6.71 mmol/L.
In the case of COc1ccc2cc3[n+](cc2c1OC)CCc1cc2c(cc1-3)OCO2 [Berberine HCl, reference compound], the Body weight [2, 4] is reported as 42.4 ± 1.37 g, the “Weight ratio of liver” value [2, 4] is reported as 4.26 ± 0.12% and the ALT [2, 5] is reported as 37.1 ± 4.08 U/L. The AST [2, 5] was 198.7 ± 18.93 U/L, the HDL-C [2, 5] was 2.47 ± 0.20 mmol/L and the LDL-C [2, 5] was 1.42 ± 0.21 mmol/L. For the same compound, the MDA [2, 5] was 9.3 ± 2.14 µM, the SOD [2, 5] was 77.03 ± 8.98 U/mL and the TC [2, 5] was 5.97 ± 0.47 mmol/L. The TG [2, 5] was 1.00 ± 0.08 mmol/L.
